Earlier results on three compounds are cited in patent US20050158403A1, “Preparation of chinese herbal composite recipe used in horticulture” (priority 2004, published 2005).

One series concerns B-streptococcus. The settings on record: 1% matrine; in vitro.
The next series has as its system Proteus. The settings on record: 1% matrine; in vitro.
The subject of a further series is E. Coli. The settings on record: 1% matrine; in vitro.
The subject of a further series is Staphylococcus aureaus. The settings on record: 1% matrine; in vitro.
Another series concerns Shigella. The conditions noted are these: 1% matrine; in vitro.

Regarding `CC[C@@H]1[C@H]2CCCCN3[C@H]2[C@H](C[C@H]3[C@@H]2C[C@H](C)C(=O)O2)[C@@H]2[C@H]1OC(=O)[C@H]2C` [tuberostemonine], the “effect on Ascarid” value in the series on Ascarid is listed as “tuberostemonine can paralyze”.

`O=C1CCC[C@@H]2[C@H]3CCCN4CCC[C@@H](CN12)[C@@H]34` [matrine]: the bacteria inhibition effects entry with B-streptococcus, in the series with Proteus, in the series on E. Coli, in the series on Staphylococcus aureaus and in the series with Shigella was “bacteria inhibition effects” in each case.

On to discorea saponin, for which the effect to bacteria entry in the series with bacteria is “but no effect to bacteria”.
